In ChEMBL document CHEMBL1140146, “Cycloartane glycosides from Sutherlandia frutescens” (J Nat Prod, 2008):
Calls of active or inactive are those of the source.

Assays:
Assay type in all cases: functional, organism-based
[1] = tested on: Staphylococcus aureus; assay: Antimicrobial activity against methicillin-resistant Staphylococcus aureus at 20 ug/mL by microplate assay
[2] = tested on: Plasmodium falciparum; assay: Antimalarial activity against Plasmodium falciparum D6 at 40 ug/mL
[3] = tested on: Mycobacterium intracellulare; assay: Antimicrobial activity against Mycobacterium intracellular at 20 ug/mL
[4] = tested on: Pseudomonas aeruginosa; assay: Antimicrobial activity against Pseudomonas aeruginosa at 20 ug/mL
[5] = tested on: Aspergillus fumigatus; assay: Antimicrobial activity against Aspergillus fumigatus at 20 ug/mL
[6] = tested on: Cryptococcus neoformans; assay: Antimicrobial activity against Cryptococcus neoformans at 20 ug/mL by microplate assay
[7] = tested on: Staphylococcus aureus; assay: Antimicrobial activity against Staphylococcus aureus at 20 ug/mL by microplate assay
[8] = tested on: Candida albicans; assay: Antimicrobial activity against Candida albicans at 20 ug/mL by NCCLS method
[9] = tested on: Plasmodium falciparum; assay: Antimalarial activity against Plasmodium falciparum W2 at 40 ug/mL

Measured: Activity

C[C@H](CC[C@H](O)C(C)(C)O[C@@H]1O[C@H](CO)[C@@H](O)[C@H](O)[C@H]1O)[C@H]1CC[C@@]2(C)[C@H]3C(=CC[C@]12C)C[C@]12O[C@H]3C[C@H]1C(C)(C)[C@H](O)C[C@@H]2O
inactive: all assays above

C[C@H](CC[C@H](O)C(C)(C)O[C@@H]1O[C@H](CO)[C@@H](O)[C@H](O)[C@H]1O)[C@H]1CC[C@@]2(C)[C@@H]3CC[C@H]4C(C)(C)[C@H](O)CC(=O)[C@@]45C[C@@]35C(=O)C[C@]12C
inactive: all assays above

C[C@H](CC[C@H](O)C(C)(C)O[C@@H]1O[C@H](CO)[C@@H](O)[C@H](O)[C@H]1O)[C@H]1CC[C@@]2(C)[C@@H]3[C@@H](O)C[C@H]4C(C)(C)C=CC(=O)[C@@]45C[C@@]35CC[C@]12C
inactive: all assays above

C[C@H](CC[C@H](O)C(C)(C)O[C@@H]1O[C@H](CO)[C@@H](O)[C@H](O)[C@H]1O)[C@H]1CC[C@@]2(C)[C@@H]3[C@@H](O)C[C@H]4C(C)(C)[C@H](O)CC(=O)[C@@]45C[C@@]35CC[C@]12C
inactive: all assays above
